Test results: patent US20050137176A1, “Use of a steroidal or non-steroidal EcR receptor ligand in a cosmetic or dermatological preparation for maintaining cutaneous homeostasis” (L'OREAL, priority 2003, published 2005)

Tests used:
[1] = test system: reconstructed epidermides; assay: Measurement of the thickness of the epidermis (histology, HES staining, image analysis); assay type: cell-based; details: ecdysterone in culture medium of reconstructed epidermes, 7 days
Method: Reconstructed epidermides were prepared according to the technique of Asselineau et al., 1985 (Asselineau D, Bernard B A, Bailly C. & Darmon M: Epidermal morphogenesis and induction of 67 kD Keratin polypeptide by culture at the air liquid interface Exp Cell Res 159: 536-539).
From the first day of exposure to the air/liquid interface, the epidermides were cultured in the presence of ecdysterone in the culture medium (1 to 1000 μg/ml). The epidermes were cultured for 7 days. The treatment was renewed every 48 hours by changing the culture medium. After treatment for 7 days, the epidermes were harvested. The histological analysis is performed after staining with HES (hematoxylin eosin saffron).
Epidermal thickness measurements were performed on histological slices. To do this, 10 measurements are taken on a field. For each sample, 5 fields are counted. These measurements are performed using a Leica Q600S image analysis system with an ×10 objective lens. The mean thickness obtained for each sample corresponds to 50 measurements taken.

[2] = test system: keratinocytes derived from a mammoplasty; assay: Measurement of cell multiplication of keratinocytes (number of cells per flask); assay type: cell-based, human
Method: The keratinocytes are derived from a mammoplasty. These keratinocytes were isolated and then cultured in KGM medium (Clonetics) supplemented with growth factor (EGF (Epidermal Growth Factor): 10 ng/ml, 0.4 μg/ml, insulin 5 μg/ml, BPE (Bovine Pituitary Extract) 4 ml/L). The cells are treated with ecdysterone for 8 hours to 48 hours. There is no EGF in the culture medium during the treatment with ecdysterone. […]

[3] = test system: normal human keratinocytes; assay: Cell cycle analysis (DNA content by flow cytometry); assay type: cell-based; details: as a function of the amount of ecdysterone in the keratinocyte culture medium
Method: The cell cycle analysis consists in studying the DNA content of a cell population by flow cytometry. These studies were performed on normal human keratinocytes cultured as a monolayer in a defined medium (KGM-Clonetics).
The keratinocytes are derived from a mammoplasty. These keratinocytes were isolated and then cultured in KGM medium supplemented with growth factors (EGF: 10 ng/ml, 0.4 μg/ml, insulin 5 μg/ml, BPE (Bovine Pituitary Extract) 4 mL).
The cells are treated with ecdysterone for 8 hours to 48 hours. There is no EGF in the culture medium during the treatment with ecdysterone.
Ecdysterone was tested at the following concentrations: 1 μg/ml, 0.1 μg/ml and 0.01 μg/ml.
The protocol followed for the cell cycle analysis in flow cytometry is described in the following publication: Staiano-Coico L., Higgins P. J., Darzynkiewicz Z. et al; 1986 Human keratinocyte culture. Identification and stagind of epidermal cell subpopulations. J. Clin. Invest. 77, 396-404. The analysis was performed using a Facs Calibur 3C Trieur flow cytometer from the company Becton-Dickinson.

MRP8/MRP14 mRNA = assay: Expression of MRP8/MRP14 messenger RNA in reconstructed epidermides; assay type: cell-based; details: treatment for 7 days
Excerpt: (§1) Ecdysterone was applied to the medium of reconstructed epidermides under the same conditions as those of Example 1.
(§2) After treatment for 7 days, the epidermides were harvested.

psoriasin mRNA = assay: Expression of psoriasin messenger RNA in reconstructed epidermides; assay type: cell-based; details: treatment for 7 days
Excerpt: as §1, §2

MRP8 and MRP14 = assay: Protein markers MRP8 and MRP14 by immunofluorescence on histological slices; assay type: cell-based; details: reconstructed epidermides, conditions of Example 1
Method: Ecdysterone was added to the medium of reconstructed epidermides under the same conditions as those of Example 1.
The proteins MRP8 and MRP14 are proteins that are strongly expressed in reconstructed skin, in psoriatic skin and by keratinocytes that are hyperproliferative but that have, however, maintained the capacity to differentiate. The analysis of the protein markers MRP8 and MRP14 was performed by immunofluorescence on histological slices.

For CC(C)(O)CC[C@@H](O)[C@](C)(O)[C@H]1CC[C@@]2(O)C3=CC(=O)[C@@H]4C[C@@H](O)[C@@H](O)C[C@]4(C)[C@H]3CC[C@]12C [Ecdysterone, (2b, 3b, 5b,22R)-2,3,14,20,22,25-hexahydroxycholest-7-en-6-one], the “Parakeratosis or reduction in the thickness of the horny layer” value [1] was “not accompanied by parakeratosis”, the “Thickness of the epidermis at the level of the live layers” value [1] was “increase in the thickness of the epidermis at the level of the live layers” and the No of cells/flask ([2]; 0.001 μg/ml, 16 hours, second series) was 3.6 × 10^5 cells/flask. The No of cells/flask ([2]; 0.001 μg/ml, 24 hours, second series) was 3.6 × 10^5 cells/flask, the No of cells/flask ([2]; 0.001 μg/ml, 48 hours, second series) was 1.6e+06 cells/flask and the No of cells/flask ([2]; 0.01 μg/ml, 16 hours, first series) was 0.8 × 10^6 cells/flask. For the same compound, the No of cells/flask ([2]; 0.01 μg/ml, 16 hours, second series) was 2.5 × 10^5 cells/flask, the No of cells/flask ([2]; 0.01 μg/ml, 24 hours, first series) was 1.0 × 10^6 cells/flask and the No of cells/flask ([2]; 0.01 μg/ml, 24 hours, second series) was 5.7 × 10^5 cells/flask. For the same compound, the No of cells/flask ([2]; 0.01 μg/ml, 48 hours, second series) was 1.6 × 10^6 cells/flask, the No of cells/flask ([2]; 0.1 μg/ml, 8 hours, first series) was 0.8 × 10^6 cells/flask and the No of cells/flask ([2]; 0.1 μg/ml, 16 hours, first series) was 1.0 × 10^6 cells/flask. The No of cells/flask ([2]; 0.1 μg/ml, 16 hours, second series) was 3.6 × 10^5 cells/flask, the No of cells/flask ([2]; 0.1 μg/ml, 24 hours, first series) was 1.1 × 10^6 cells/flask and the No of cells/flask ([2]; 0.1 μg/ml, 24 hours, second series) was 5.2 × 10^5 cells/flask. The No of cells/flask ([2]; 0.1 μg/ml, 48 hours, second series) was 1.5 × 10^6 cells/flask, the No of cells/flask ([2]; 1 μg/ml, 8 hours, first series) was 0.7 × 10^6 cells/flask and the No of cells/flask ([2]; 1 μg/ml, 16 hours, first series) was 0.5 × 10^6 cells/flask. For the same compound, the No of cells/flask ([2]; 1 μg/ml, 24 hours, first series) was 1.1 × 10^6 cells/flask, the “Number of cells relative to the control cells” value ([2]; after treatment for 48 hours) was “no significant increase in the number of cells” and the “Phases of the cell cycle (cell population between G0/G1 and G2/M)” value [3] was “change in the cell population between the phases G0/G1 and G2/M”. The “Reduction of the expression of MRP8/MRP14 mRNA (factor)” value (MRP8/MRP14 mRNA) was 1.7, the “Reduction of the expression of psoriasin mRNA (factor)” value (psoriasin mRNA) was 3.5 and the “Expression of the proteins MRP8 and MRP14 on histological slices” value (MRP8 and MRP14) was “restricts the expression of MRP8 and MRP14 to the upper layers of the epidermis”.
